Measurements taken from patent publication EP1228077B1, “RUTHENIUM (II) COMPLEXES WITH HIGH ANTITUMORAL AND ANTIMETASTATIC ACTIVITIES” (priority 1999, dated 2001).

What was measured:
Format in all cases: in vivo
MCa mammary carcinoma [1] = test: Example 4: prevention of lung metastases in mice with MCa mammary carcinoma; settings: lung metastases on day 21, i.p. treatment day 12 to 17; for Metastases Number: CBA/Lac female mice, 6 per group
Experimental: Six groups composed of 6 CBA\Lac kin female mice, weighing 23±3 g were inoculated on day 0 with 10^6 viable cells (as determined with Trypan blue-exclusion test) of MCa mammary carcinoma, in 0.05 ml volume of Dulbecco's buffered at pH 7.4 calcium and magnesium-free saline physiological solution (D-PBS), by intramuscular injection with a sterile insulin syringe. The tumour cells derive from donors of the same strain, were transplanted with an insulin sterile syringe accordingly to the same procedure two weeks before. The tumour cells in PBS suspension were prepared by mechanical mincing of the tumour mass obtained from donor mice and by further removing tissue and cell debris by filtration through a double layer of sterile gauze and further centrifugation at 250xg for 10 minutes. The kin animals were derived from a colony obtained from Chester Beatthy, London (UK) and grown in the University of Trieste pound according to the procedures for the rearing of kin animals. The MCa mammary carcinoma tumour line derives from a stock, kept in liquid nitrogen, of tumour cells obtained originally from Rudjer Boskovic Institute, Zagreb (HR).
From day 12 to day 17 after tumour implantation, the six groups of mice were treated intraperitoneally using an insulin sterile syringe, respectively with: • Group 1. Control: […] body weight/die of sterile pyrogen-free physiological solution; • Group 2. ASC: 6.69 mg/kg body weight/die of ascorbic acid in sterile and pyrogen-free physiological solution; • Group 3. CYST: 12 mg/kg body weight/die of […] in sterile and pyrogen-free physiological solution; • Group 4. RUT: 35 mg/kg body weight/die of Ruthenium (III) complex, (lmH)[trans-RuCl4(Me2SO)(Im)] in pyrogen-free and sterile physiological solution; • Group 5. RUT-ASC: 35 mg/kg body weight/die of the Ruthenium (III) complex, (ImH)[trans-RuCl4(Me2SO)(Im)] and 12 mg/kg body weight/die of cysteine in sterile and pyrogen-free physiological saline solution; • Group 6. RUT-CYST: 35 mg/kg body weight/die of the Ruthenium (III) complex, (ImH)[trans-RuCl4(Me2SO)(Im)] and 12 mg/kg body weight/die of cysteine in sterile and pyrogen-free physiological saline solution.
The reducing agents ascorbic acid and cysteine were used in a equivalent ratio corresponding to 1 with the Ruthenium (III) complex. The redox reaction was immediate. The administration took place after analytical control of the complete reduction of the Ruthenium (III) complex to Ruthenium (II).
(§1) On day 17 from tumour implantation, the growth of the primary tumour was evaluated and the tumor surgically removed after general anaesthesia of the animals with ketamine. The tumor size was determined by measuring both orthogonal axes of the tumour by means of a caliber, the weight in grams of the rotation solid developed around these axes was measured, considering the tumour density equal to 1 and using the formula. (π/6).a^2.b, wherein a was the minor and b the major axis.
On day 21 from tumour implantation, the mice were sacrificed by cervical dislocation and lung metastases were analyzed. The lungs removed from the animal immediately after sacrifice, were divided in single lobes, which were then examined immediately with a low-magnification microscope equipped with an ocular-grid for the measurement of the metastases sizes from which the two orthogonal a and b axes (with a ≤b) are identified. The metastases were then grouped on the basis of their dimensions and the metastatic tumour weight was calculated as the sum of the weight of each single metastasis, each of them regarded as a rotation solid developed around the above mentioned axes, and with a volume calculated by the same formula used for the primary tumour. The experimental data obtained were therefore processed by appropriate statistical tests. The results are reported in Table 1 wherein the number and weight of lung metastases obtained in each group of animal are shown.

MCa mammary carcinoma [2] = test: Example 5: prevention of lung metastases in mice with MCa mammary carcinoma; settings: lung metastases on day 23, i.p. treatment day 10 to 15; for Metastases Number: CBA/Lac female mice, 7 per group
Experimental: In a further experiment similar to the previous one, six groups of animals, each of them composed of 7 CBA/Lac kin female mice, weighing 23±3 g were inoculated on day 0 with cells of MCa mammary carcinoma, according to the protocol described in the previous example. From day 10 to day 15 after tumour implantation, the 6 groups of mice were treated intraperitoneally using a sterile insulin syringe, respectively with: • Group 1: […] RUT: 35 mg/kg body weight/die of Ruthenium (III) complex, (ImH)[trans-RuCl4(Me2SO)(Im)] in sterile and pyrogen-free physiological saline solution; • Group 5: […] The reducing agents glutathione and cysteine were used in an equivalent ratio of 1 with the Ruthenium (III) complex. The redox reaction was immediate. The administration took place after the analytical control of total reduction of the Ruthenium (III) to Ruthenium (II) complexes. On day 16 from tumour implantation, the growth of the primary tumour as described in the previous example was evaluated. On day 23 from tumour implantation, the mice were sacrificed and the metastases were evaluated as in previous example. The experimental data obtained were processed by appropriate statistical tests and reported in Table 2, wherein the number and weight of lung metastases obtained in the treated group of animals are also reported.

[3] = Example 7: systemic toxicity (body weight, spleen weight) in tumour-bearing mice
Experimental: Four groups, each of them composed of 7 CBA/Lac-kin female mice weighing 23±3 g on day 0 were inoculated with MCa mammary carcinoma cells according to the protocol described in the previous examples. From day 11 to day 16 after tumour implantation, the four groups of mice were treated intraperitoneally using a sterile insulin syringe, respectively with: • Group 1: Control: 10 ml/kg body weight/die of sterile and pyrogen-free physiological solution; • Group 2: CYST: 2 mg/kg body weight/die of cysteine in sterile and pyrogen-free physiological solution; • Group 3: RUT: 35 mg/kg body weight/die of Ruthenium (III) complex (lmH)[trans-RuCl4(Me2SO)(Im)] in sterile and pyrogen-free physiological solution; • Group 4: RUT-CYST: 35 mg/kg body weight/die of Ruthenium (III) complex , (ImH)[trans-RuCl4(Me2SO)(lm)] and 12 mg/kg body weight/die of cysteine in sterile and pyrogen-free physiological solution.
The reducing agent (cysteine) was used in a equivalent ratio of 1with the Ruthenium (III) complex. The redox reaction was immmediate.
The administration took place after analytical control of the complete reduction of the Ruthenium (III) to Ruthenium (II) complexes.
(§2) On day 17 from tumour implantation, the mice were sacrificed, the primary tumour and the spleen were removed and analysed as in the previous example. […]
The data reported in the Table 4 indicate how the body weight and the spleen weight, which are indicators of the systemic toxicity of the treatment, turned out to be more similar to the control (group 1) when the mice were treated with the Ruthenium (II) complexes according to the invention (group 4) than when treated with Ruthenium (III) (group 3) only.

[4] = test system: Lewis lung carcinoma (LLC); test: Example 6: lung metastases in BD2F1 mice with Lewis lung carcinoma; settings: day 20; treatment day 8 to 13
Experimental: Groups of 7 BD2F1 female mice were inoculated by means of intramuscular injection on day 0 with cells of Lewis lung carcinoma (LLC). From day 8 to day 13 the animals were treated with the Ruthenium (III) complex [trans-RuCl4(DMSO)(lm)](lmH), (compound of formula II) and with the Ruthenium (II) complex, trans-RuCl2(DMSO)4, both belonging to the state of the art. On day 20 from tumour implantation, the mice were sacrificed and the metastases evaluated. All the procedures of the experiments were carried out as reported in the previous examples.

[5] = Example 8: systemic toxicity (body weight) in tumour-bearing mice
Experimental: Four groups each composed of 6 CBA/Lac kin female […] weighing 23±3 g. were inoculated on day 0 with tumour cells according to the protocol described in the previous examples. From day 12 to day 17, after tumour implantation, the four groups of mice were treated intraperitoneally using a sterile insulin syringe, respectively with: • Group 1: Control: 10 ml/kg body weight/die of sterile and pyrogen-free physiological solution; • Group 2: ASC: 6.69 mg/kg body weight/die of ascorbic acid in sterile and pyrogen-free physiological solution; • Group 3: RUT: 35 mg/kg body weight/die of Ruthenium (III) complex, (lmH)[trans-RuCl4(Me2SO)(Im)] in sterile and pyrogen-free physiological solution; • Group 4: RUT+ASC: 35 mg/kg body weight/die of Ruthenium (III) complex (lmH)[trans-RuCl4(Me2SO)(lm)] and 6.69 mg/kg body weight/ die of ascorbic acid in sterile and pyrogen-free physiological saline solution.
The reducing agent (ascorbic acid) was used in a equivalent ratio of 1 with the Ruthenium (III) complex. The redox reaction was immediate.
The administration took place after analytical control of the complete reduction of the Ruthenium (III) complex to Ruthenium (II).
On day 18 from tumour implantation, the primary tumour and the spleen were removed and weighed, as described previously.
The experiment confirms the lower toxicity of the Ruthenium (II) complexes of the invention (group 4) with respect to the prior art Ruthenium (III) complexes (group 3).

MCa mammary carcinoma [6] = test: Example 7: primary tumour weight variation in mice with MCa mammary carcinoma; settings: weight variation with respect to the controls, day 11 to day 17; i.p. treatment day 11 to 16
Experimental: as §1
Four groups, each of them composed of 7 CBA/Lac-kin female mice weighing 23±3 g on day 0 were inoculated with MCa mammary carcinoma cells according to the protocol described in the previous examples. […]
as §2

[7] = day 17, after i.p. treatment day 11 to 16

SMILES	%T/C (metastases weight in the treated animals/metastases weight in the controls) (MCa mammary carcinoma [1]) [%]	Metastases Weight (MCa mammary carcinoma [1]) [mg]	a.p./a.t (number of animals devoid of metastases/ total number of animals) (MCa mammary carcinoma [1])	Metastases Number (MCa mammary carcinoma [1])	%T/C (metastases weight in the treated animals/metastases weight in the controls) (MCa mammary carcinoma [2]) [%]	Metastases Weight (MCa mammary carcinoma [2]) [mg]	Metastases Number (MCa mammary carcinoma [2])	Lung Metastases Number %T/C [4] [%]	Lung Metastases Weight [4]	Lung Metastases Weight %T/C [4] [%]	other results
N[C@@H](CS)C(=O)O [CYST, cysteine]	103	94.6 ± 26	0/6	35.0± 13.5	76	141.2 ± 15.1	30.5±7.2	–	–	–	% variation (body weight) ([3]; body weight variation with respect to the controls, day 11 to 17): -2.5%; Body weight (day 11) ([3]; day 11, start of i.p. treatment): 30.5±0.6; Body Weight (day 17) [3, 7]: 28.8±0.6; Spleen weight (day 17) [3, 7]: 297± 3.3
C[SH](C)(=O)[Ru]([Cl])([Cl])([SH](C)(C)=O)([SH](C)(C)=O)[SH](C)(C)=O [trans-RuCl2(DMSO)4]	–	–	–	–	–	–	–	82	85.5±19.3	45	–
O=C1O[C@H]([C@@H](O)CO)C(O)=C1O [ASC, ascorbic acid]	86	81.5 ± 14	0/6	18.3± 8.6	–	–	–	–	–	–	Body weight (day 12) ([5]; day 12, start of i.p. treatment): 27.6±0.7; Body weight (day 18) ([5]; day 18, after i.p. treatment day 12 to 17): 26.7±1.2
N[C@@H](CCC(=O)N[C@@H](CS)C(=O)NCC(=O)O)C(=O)O [GLU, glutathione]	–	–	–	–	75	138.8 ± 20.5	47.0±3.9	–	–	–	–
CS(C)=O.[Cl-].[Cl-].[Cl-].[Cl-].[Ru+3].c1c[nH+]c[nH]1.c1c[nH]cn1 [RUT, (ImH)[trans-RuCl4(Me2SO)(Im)]]	16	15.2 ± 2.3	0/6	7.0± 1.9	45	83.6 ± 4.5	27.5±3.0	38	47.6±11.5	25	% Variation of the primary tumour (MCa mammary carcinoma [6]): -30.3%; Body Weight (day 17) ([3]; mouse, in vivo, ip): 26.5±0.8; Body weight (day 11) ([3]; mouse, in vivo, ip): 30.0±1.0; Spleen weight (day 17) ([3]; mouse, in vivo, ip): 197± 8.8; Body weight (day 12) ([5]; mouse, in vivo, ip): 27.0±0.9; Body weight (day 18) ([5]; mouse, in vivo, ip): 23.3±0.8
